Data as given in US4204063A, “N(Aminoalkyl)-naphthalimides and their derivatives” (priority 1977, dated 1980).
Converted amounts (≈) assume the structure as drawn. Read-outs that look alike come from different tables or passages of the source.

Test system: He-La cells
Test: cytotoxic activity on He-La cells (inhibition of cellular growth, protein determination)
Assay type: cell-based
Details: Homo sapiens, HeLa, read-out: ID50 (inhibitory dose 50, dose which inhibits cellular growth by 50%)
Procedure: Testing commences using a culture having approximately 125,000 cells per milliliter. They are dispersed with trypsin and are maintained in suspension by stirring until the moment they are placed in tubes.
After 72 hours the results are read.

[1] = He-La cells, monolayer, 72 hours, protein determination (modified Lowry)

| SMILES | IC50 [1] | IC50 (72 h) |
| --- | --- | --- |
| CN(C)CCCN1C(=O)c2cccc3cc([N+](=O)[O-])cc(c23)C1=O [Example 1, N-(3-dimethylaminopropyl)-3-nitro-1,8-naphthalimide] | 1 µg/mL (≈ 3.05 µM) | – |
| CCN(CC)CCCN1C(=O)c2cccc3cc([N+](=O)[O-])cc(c23)C1=O [Example 2, N-(3-diethylaminopropyl)-3-nitro-1,8-naphthalimide] | 5 µg/mL (≈ 14.1 µM) | – |
| O=C1c2cccc3cc([N+](=O)[O-])cc(c23)C(=O)N1CCN1CCOCC1 [Example 3, N-2-(N-morpholino)-ethyl-3-nitro-1,8-naphthalimide] | 20 µg/mL (≈ 56.3 µM) | – |
| CCN1CCCC(N2C(=O)c3cccc4cc([N+](=O)[O-])cc(c34)C2=O)C1 (stereo not drawn) [Example 4, N-3-(1-ethylpiperidino)-3-nitro-1,8-naphthalimide] | 6 µg/mL (≈ 17 µM) | – |
| CN1CCN(CCCN2C(=O)c3cccc4cc([N+](=O)[O-])cc(c34)C2=O)CC1 [Example 5, N-3-(4-methyl-1-piperazino)-propyl-3-nitro-1,8-naphthalimide] | 2 µg/mL (≈ 5.23 µM) | – |
| CN(C)N1C(=O)c2cccc3cc([N+](=O)[O-])cc(c23)C1=O [Example 6, N-dimethylamino-3-nitro-1,8-naphthalimide] | > 100 µg/mL | – |
| O=C1c2cccc3cc([N+](=O)[O-])cc(c23)C(=O)N1N1CCCC1 [Example 7, N-(1-pyrrolidino)-3-nitro-1,8-naphthalimide] | > 100 µg/mL | – |
| NC(=O)NN1C(=O)c2cccc3cc([N+](=O)[O-])cc(c23)C1=O [Example 8, N-ureyl-3-nitro-1,8-naphthalimide] | > 100 µg/mL | – |
| CN(C)CCN1C(=O)c2cccc3cc(N)cc(c23)C1=O [Example 9] | 2.5 µg/mL (≈ 8.82 µM) | – |
| CCN(CC)CCN1C(=O)c2cccc3cc(N)cc(c23)C1=O [Example 10, N-(2-diethylaminoethyl)-3-amino-1,8-naphthalimide] | 3 µg/mL (≈ 9.63 µM) | – |
| Nc1cc2c3c(cccc3c1)C(=O)N(CCN1CCCC1)C2=O [Example 11, N-[2-(1-pyrrolidino)-ethyl]-3-amino-1,8-naphthalimide] | – | 1.5 µg/mL (≈ 4.85 µM) |
| Nc1cc2c3c(cccc3c1)C(=O)N(CCN1CCCCC1)C2=O [Example 12, N-[2-(1-piperidino)-ethyl]-3-amino-1,8-naphthalimide] | 8 µg/mL (≈ 24.7 µM) | – |
| Nc1cc2c3c(cccc3c1)C(=O)N(CCN1CCOCC1)C2=O [Example 13, N-[2-(1-morpholino)-ethyl]-3-amino-1,8-naphthalimide] | 10 µg/mL (≈ 30.7 µM) | – |
| CN(C)CCCN1C(=O)c2cccc3cc(N)cc(c23)C1=O [Example 14, N-(3-dimethylaminopropyl)-3-amino-1,8-naphthalimide] | 5 µg/mL (≈ 16.8 µM) | – |
| CCN(CC)CCCN1C(=O)c2cccc3cc(N)cc(c23)C1=O [Example 15, N-(3-diethylaminopropyl)-3-amino-1,8-naphthalimide] | 25 µg/mL (≈ 76.8 µM) | – |
| CN1CCN(CCCN2C(=O)c3cccc4cc(N)cc(c34)C2=O)CC1 [Example 16, N-[3-(4-methyl-1-piperazino)-propyl]-3-amino-1,8-naphthalimide] | 10 µg/mL (≈ 28.4 µM) | – |
| CN(C)N1C(=O)c2cccc3cc(N)cc(c23)C1=O [Example 17, N-dimethylamino-3-amino-1,8-naphthalimide] | 100 µg/mL (≈ 392 µM) | – |

| SMILES | IC50 [1] | IC50 (72 h) |
| --- | --- | --- |
| CN(C)CCN1C(=O)c2cccc3cc(Cl)cc(c23)C1=O [Example 18, N-(2-dimethylaminoethyl)-3-chloro-1,8-naphthalimide] | 0.8 µg/mL (≈ 2.64 µM) | – |
| O=C1c2cccc3cc(Cl)cc(c23)C(=O)N1CCN1CCCC1 [Example 19, N-[2-(1-pyrrolidino)-ethyl]-3-chloro-1,8-naphthalimide] | 1.5 µg/mL (≈ 4.56 µM) | – |
| O=C1c2cccc3cc(Cl)cc(c23)C(=O)N1CCN1CCCCC1 [Example 20, N-[2-(1-piperidino)-ethyl]-3-chloro-1,8-naphthalimide] | 3.5 µg/mL (≈ 10.2 µM) | – |
| O=C1c2cccc3cc(Cl)cc(c23)C(=O)N1CCN1CCOCC1 [Example 21, N-[2-(1-morpholino)-ethyl]-3-chloro-1,8-naphthalimide] | 100 µg/mL (≈ 290 µM) | – |
| CN(C)CCCN1C(=O)c2cccc3cc(Cl)cc(c23)C1=O [Example 22, N-(3-dimethylaminopropyl)-3-chloro-1,8-naphthalimide] | 2 µg/mL (≈ 6.31 µM) | – |
| CN(C)CCN1C(=O)c2cccc3cc(O)cc(c23)C1=O [Example 23, N-(2-dimethylaminoethyl)-3-hydroxy-1,8-naphthalimide] | 3 µg/mL (≈ 10.6 µM) | – |
| O=C1c2cccc3cc(O)cc(c23)C(=O)N1CCN1CCCC1 [Example 24, N-[2-(1-pyrrolidino)-ethyl]-3-hydroxy-1,8-naphthalimide] | 3.5 µg/mL (≈ 11.3 µM) | – |
| O=C1c2cccc3cc(O)cc(c23)C(=O)N1CCN1CCOCC1 [Example 25, N-[2-(1-morpholino)-ethyl]-3-hydroxy-1,8-naphthalimide] | 100 µg/mL (≈ 306 µM) | – |
| COc1cc2c3c(cccc3c1)C(=O)N(CCN(C)C)C2=O [Example 26, N-(2-dimethylaminoethyl)-3-methoxy-1,8-naphthalimide] | 1.5 µg/mL (≈ 5.03 µM) | – |
| COc1cc2c3c(cccc3c1)C(=O)N(CCN1CCCC1)C2=O [Example 27, N-[2-(1-pyrrolidino)-ethyl]-3-methoxy-1,8-naphthalimide] | 0.75 µg/mL (≈ 2.31 µM) | – |
| CCOC(=O)Nc1cc2c3c(cccc3c1)C(=O)N(CCN(C)C)C2=O [Example 28, N-(dimethylaminoethyl)-3-ethoxycarbonylamino-1,8-naphthalimide] | 10 µg/mL (≈ 28.1 µM) | – |
| CCOC(=O)Nc1cc2c3c(cccc3c1)C(=O)N(CCN1CCCC1)C2=O [Example 29, N-[2-(1-pyrrolidino)-ethyl]-3-ethoxycarbonylamino-1,8-naphthalimide] | 10 µg/mL (≈ 26.2 µM) | – |
| CC(=O)Nc1cc2c3c(cccc3c1)C(=O)N(CCN(C)C)C2=O [Example 30, N-(2-dimethylaminoethyl)-3-acetylamino-1,8-naphthalimide] | 4 µg/mL (≈ 12.3 µM) | – |
| CC(=O)Nc1cc2c3c(cccc3c1)C(=O)N(CCN1CCCC1)C2=O [Example 31, N-[2-(1-pyrrolidino)-ethyl]-3-acetylamino-1,8-naphthalimide] | 5 µg/mL (≈ 14.2 µM) | – |
| O=C1c2cccc3cc(S(=O)(=O)O)cc(c23)C(=O)N1CCN1CCCC1 [Example 32, N-[2-(1-pyrrolidino)ethyl]-3-sulfo-1,8-naphthalimide] | > 100 µg/mL | – |
| CN(C)CCN1C(=O)c2cccc3cc(C(C)(C)C)cc(c23)C1=O [Example 33, N-(2-dimethylaminoethyl)-3-tert-butyl-1,8-naphthalimide] | 14 µg/mL (≈ 43.2 µM) | – |
